# According to patent publication US9606124B2, “Methods of detecting and treating stem-cell containing solid tumors” (The Regents of The University of Michigan, priority 2008, dated 2017):
# “Also recorded” adds a separate entry of the source.
# Legend:
# HCC1954 cells = assay: Metastasis formation after intracardiac injection of HCC1954 cells (bioluminescence); type: in vivo, NOD/SCID mice; conditions: 250,000 cells intracardiac, repertaxin 15 mg/kg s.c. twice a day 28 days vs saline
# Experimental: (§1) Intracardiac inoculation. […] Twelve hours after intracardiac injections, mice were begun on twice per day repertaxin injections or saline for the controls. Bioluminescence detection. Baseline bioluminescence was assessed before inoculation and each week thereafter inoculations. Bioluminescence detection procedures was performed as previously described ([…] et al. Cancer Res. 69:1302-1313, herein incorporated by reference in its entirety). Normalized photon flux represents the ratio of the photon flux detected each week after inoculations and the photon flux detected before inoculation.
# phospho-FAK = assay: Immunohistochemistry of phospho-FAK in xenotransplants; set-up: species or system NOD/SCID mice; conditions: mouse, in vivo
# Experimental: (§2) Immunostaining. For immunofluorescent staining, sorted CXCR1-positive cells were fixed with 95% methanol at −20° C. for 10 minutes. Cells were rehydrated in PBS and incubated with respective antibodies at room temperature for 1 hour. Primary antibodies used were P-FAK (1:50, Cell Signaling Technology), P-AKT (1:300, Cell Signaling Technology), and FOXO3a (1:250, Cell Signaling Technology). Slides were then washed and incubated 30 minutes with PE conjugated secondary antibodies (Jackson labs). The nuclei were counterstained with DAPI/antifade (Invitrogen) and coverslipped. […] Immunohistochemistry for the detection of ALDH1 (1:100, BD biosciences), P-FAK, P-AKT, FOXO3a expression was done on paraffin section (Ginestier et al. Am. J Pathol. 161:1223-1233, herein incorporated by reference in its entirety). Staining was done utilizing the Histostainplus kit (Zymed laboratories). Diaminobenzidine (DAB) or 3-amino-9-ethylcarbazole (AEC) was used as chromogen and sections were counterstained with hematoxylin.
# phospho-AKT = assay: Immunohistochemistry of phospho-AKT in xenotransplants; set-up: species or system NOD/SCID mice; conditions: mouse, in vivo
# Experimental: as §2
# [1] = test system: ALDEFLUOR-positive population of HCC1954; assay: ALDEFLUOR assay on HCC1954 cells in vitro; type: cell-based, human; conditions: three days, repertaxin 100 nM, antibodies 10 μg/ml
# Experimental: (§3) ALDEFLUOR assay. […] In order to eliminate cells of mouse origin from the xenotransplanted tumors, cell population was stained with an anti-H2Kd antibody (BD biosciences, 1/200, 20 min on ice) followed by staining with a secondary antibody labeled with phycoerythrin (PE) (Jackson labs, 1/250, 20 min on ice).
# [2] = test system: SUM159 cell line and human breast cancer xenografts MC1, UM2, UM3; assay: Tumor growth of breast cancer xenografts in the mammary fat pad; type: in vivo, NOD/SCID mice; conditions: repertaxin 15 mg/Kg s.c. twice a day 28 days, docetaxel 10 mg/Kg i.p. once a week, start at tumor size about 4 mm
# Experimental: For each sample, 50,000 cells were injected into the mammary fat pad of NOD-SCID mice which were monitored for tumor size. Injections were started when the tumor size was about 4 mm.
# Animal model. […] Cells from these tumors were transplanted orthotopically in the humanized cleared fat-pad of NOD/SCID mice, without cultivation in vitro. […] 50,000 cells from each xenotransplants were injected in the humanized fat pad of NOD/SCID mice and monitored the tumor growth. […] The animals were euthanized when the tumors were approximately 1.5 cm in the largest diameter, to avoid tumor necrosis and in compliance with regulations for use of vertebrate animal in research. A portion of each fat pad injected was fixed in formalin and embedded in paraffin for histological analysis. The rest of the tumor cells were re-implantated into secondary NOD/SCID mice. Serial dilutions of cells were utilized for the re-implantation with injection of 10,000, 1,000, and 100 cells for each treated tumor.
# [3] = test system: ALDEFLUOR-positive population of SUM159 cell line; assay: ALDEFLUOR assay on SUM159 cells in vitro (cancer stem cell population); type: cell-based, human
# Experimental: ALDEFLUOR Assay and Separation of the ALDH-positive Population by FACS. ALDH activity was assessed in 33 BCLs representing the main molecular subtypes of human breast cancer. The ALDEFLUOR kit (StemCell technologies, Durham, N.C., USA) was used to isolate the population with high ALDH enzymatic activity (17). Cells obtained from subconfluent cell lines after trypsinization or from freshly dissociated xenografts were suspended in ALDEFLUOR assay buffer containing ALDH substrate (BAAA, 1 μmol/l per 1×10^6 cells) and incubated for 40 minutes at 37° C. In each experiment a sample of cells was stained under identical conditions with 50 mmol/L of diethylaminobenzaldehyde (DEAB), a specific ALDH inhibitor, as negative control. Flow cytometry sorting was conducted using a FACStarPLUS (Becton Dickinson). ALDEFLUOR fluorescence was excited at 488 nm and detected using standard fluorescein isothiocyanate (FITC) 530/30 band pass filter. For xenotransplanted tumors, incubation with an anti-H2Kd antibody (BD biosciences, 1/200, 20 min on ice) followed by a secondary antibody labeled with phycoerythrin (Jackson labs, 1/250, 20 min on ice) was used to eliminate cells of mouse origin. The sorting gates were established using PI stained cells for viability, ALDEFLUOR-stained cells treated with DEAB, and those stained with secondary antibody alone. Prior to RNA profiling or NOD/SCID mice injection, the purity of sorted populations was checked using double sorting of 10,000 ALDEFLUOR-positive and negative cells in BrCa-MZ-01 and SUM159 cell lines.
# as §3
# [4] = test system: normal mammary epithelial cells from reduction mammoplasties; assay: MTT assay on normal mammary epithelial cells; type: cell-based, human; conditions: adherent; five days; repertaxin 100 nM or 500 nM, FAS agonist 500 ng/ml
# Experimental: Dissociation of mammary tissue. 100-200 g of normal breast tissue from reduction mammoplasties was minced with scalpels, dissociated enzymatically, and single cells were cultured in suspension to generate mammospheres or on a collagen substratum in adherent condition to induce cellular differentiation (Dontu et al. Genes Dev. 17:1253-1270, herein incorporated by reference in its entirety).
# Cell viability. […] After one day, treatment with repertaxin was started. […]. […] Nuclei were counterstained with DAPI/antifade (Invitrogen).
# [5] = test system: CXCR1-positive population of SUM159 cells; assay: Flow cytometry of the CXCR1-positive population of SUM159 cells; type: cell-based, human; conditions: repertaxin, repertaxin plus anti-FAS-ligand, FAS agonist
# Experimental: Flow cytometry analysis. […] CD95/FAS staining were performed utilizing an anti-CD95 labeled APC (1:20, BD biosciences). […] Fresh cells were stained with 1 μg/ml PI (Sigma) for 5 min for viability.
# SUM159 cell line = assay: MTT assay, cell growth / cell viability of SUM159 cells
# Experimental: After 4 days of treatment, the effect on cell growth was analyzed using the MTT assay (FIG. 5A) and on the cancer stem cell population using the ALDEFLUOR assay (FIG. 5B).
# MDA-MB-453 cells = assay: Metastasis formation after intracardiac injection of MDA-MB-453 cells (bioluminescence); type: in vivo, NOD/SCID mice; conditions: 250,000 cells intracardiac, repertaxin 15 mg/kg s.c. twice a day 28 days vs saline
# Experimental: as §1
smiles,measurement,setting,value
CC(C)Cc1ccc([C@@H](C)C(=O)NS(C)(=O)=O)cc1 [Repertaxin],metastasis formation (normalized photon flux),HCC1954 cells,significantly reduced metastasis formation
same,metastasis formation (normalized photon flux),HCC1954 cells; listed as repertaxin,statistically significant decrease in metastasis formation
same,cells with membranous phospho-FAK expression in treated tumors,phospho-FAK,abolished; also recorded: no expression was detected
same,cells expressing phospho-AKT in treated tumors,phospho-AKT,complete inhibition; also recorded: no expression was detected
same,ALDEFLUOR-positive population,[1],significant reduction
same,tumor size / tumor growth compared to the control,[2],moderate impact on tumor growth
same,tumor size / tumor growth compared to the control,[2]; listed as Reperataxin,no significant difference
same,tumor size / tumor growth compared to the control,[2]; listed as repertaxin,no difference
same,percent of ALDEFLUOR-positive cells,"[3]; SUM159, repertaxin, repertaxin plus anti-FAS-ligand, FAS agonist",massive decrease
same,proportion of ALDEFLUOR-positive cells,"[3]; SUM159, three days, repertaxin 100 nM, antibodies 10 μg/ml",five-fold reduction; also recorded: significant reduction
same,decrease of the ALDEFLUOR-positive population,"[3]; SUM159 adherent, 4 days of treatment",80%
same,viability of normal mammary epithelial cells (MTT),[4],no effect
same,percent of CXCR1-positive cells,[5],massive decrease
same,viability at 0.1 µM,"SUM159 cell line; Homo sapiens, SUM159, 120 h, read-out: cells remaining viable / cell viability (MTT)",3%
same,"cell viability over time (one, three, five days)","SUM159 cell line; SUM159, repertaxin 100 nM",loss of cell viability beginning three days after treatment; also recorded: decrease in cell viability was observed after 3 days of treatment
same,metastasis formation (normalized photon flux),MDA-MB-453 cells,did not have any effect on metastasis formation
